From article PMC10945555, “Improving Activity of New Arylurea Agents against Multidrug-Resistant and Biofilm-Producing Staphylococcus epidermidis” (ACS Medicinal Chemistry Letters, 2024)
Converted amounts (≈) assume the structure as drawn. Like-named read-outs stand apart in the source and are kept apart here.

Legend:
[1] = system: Staphylococcus aureus ATCC BAA-976; test: MIC, broth microdilution, MDR/BPSA reference strain; assay type: cell-based; settings: ATCCBAA976; Staphylococcus aureus ATCC BAA-976; read-out: MIC MDR/BPSA
Description: These strains included susceptible, multidrug-resistant, and biofilm-producing strains of S. epidermidis and S. aureus (MSSE, MDR/BPSE, and MDR/BPSA, respectively). The cornerstone antibiotic linezolid served as a positive control (Table 1). The impact of structural modifications at the aryloxy fragment and the aromatic moiety bound to the propyl linker on the inhibitory activity was initially investigated. […] Further optimization focused on evaluating the impact of the type of substituent and its position on the arylsulfonamide fragment’s activity.
(§1) 2 Biological assay protocols
(§2) Microbiological tests were carried out under aseptic conditions in a laminar chamber of the 2nd […]
(§3) (BioTectum 1.2, Alchem Poland). The assessment of antimicrobial activity was carried out for final compounds in the form of free bases, soluble in DMSO (Merck, Germany), at the initial […]
(§4) concentration of 1 mg/mL. […]
were provided by Cayman Chemical, USA.
The activity of all newly synthesized compounds was tested in vitro on a panel of selected reference strains from the American Type Culture Collection (ATCC) of Gram-positive […]
(§5) 2.2 Effect of evaluated compounds on planktonic cells
(§6) The susceptibility of three reference bacterial strains (Staphylococcus epidermidis ATCC […]
(§7) Table S1) and 81 clinical MDR S. epidermidis (Table S2) to the tested compounds was assessed by determining the MIC value (Minimal Inhibitory Concentration) by microdilution in a liquid medium in 96-well flat-bottom cell culture plates (Nest Biotechnology Scientific, USA). The antibacterial properties of the compo unds were tested in the concentration range from 50 µg/mL to 0.1 µg/mL by making a series of double dilutions of the compound in liquid Mueller -Hinton II Broth Cation Adjusted (MHB II, BBL TM, USA) according to the European Committee on […]
(§8) Antimicrobial Susceptibility Testing guidelines (EUCAST).2,3 The determinations were performed twice. The MIC50 and MIC90 values were determined for each of the tested

[2] = system: clinical MDR Staphylococcus epidermidis isolates; test: MIC, broth microdilution, 81 clinical MDR strains; assay type: cell-based; settings: Staphylococcus epidermidis
Description: as §1, §2, §3, §4
were provided by Cayman Chemical, USA. […]
The antibacterial activity of selected compounds was also tested on a panel of 81 unrelated, multidrug -resistant clinical strains of Staphylococcus epidermidis from the own collection of the Department of Pharmaceutical Microbiology of the Jagiellonian University Medical College.
as §5, §6, §7, §8

O=C(Nc1cccc(Cl)c1)NC1CCN(CCC(Oc2ccc(C(F)(F)F)cc2)c2cccs2)CC1 (centres unmarked) [Compound 25]
MIC [1]: 1.6 µg/mL (≈ 2.97 µM)
MIC ([2]; 81 clinical strains (Table S5), read-out: Average of MIC): 1.84 µg/mL (≈ 3.42 µM)
MIC ([2]; clinical strain 1 (Table S2), read-out: MIC): 0.8 µg/mL (≈ 1.49 µM)
MIC ([2]; clinical strain 1 (Table S5), read-out: MIC): 1.6 µg/mL (≈ 2.97 µM)
MIC ([2]; clinical strain 2 (Table S2), read-out: MIC): 0.8 µg/mL (≈ 1.49 µM)
MIC ([2]; clinical strain 2 (Table S5), read-out: MIC): 1.6 µg/mL (≈ 2.97 µM)
MIC ([2]; clinical strain 3 (Table S2), read-out: MIC): 0.8 µg/mL (≈ 1.49 µM)
MIC ([2]; clinical strain 3 (Table S5), read-out: MIC): 0.8 µg/mL (≈ 1.49 µM)
MIC ([2]; clinical strain 4 (Table S2), read-out: MIC): 3.12 µg/mL (≈ 5.81 µM)
MIC ([2]; clinical strain 4 (Table S5), read-out: MIC): 1.6 µg/mL (≈ 2.97 µM)
MIC ([2]; clinical strain 5 (Table S2), read-out: MIC): 0.8 µg/mL (≈ 1.49 µM)
MIC ([2]; clinical strain 6 (Table S2), read-out: MIC): 1.6 µg/mL (≈ 2.97 µM)
MIC ([2]; clinical strain 6 (Table S5), read-out: MIC): 1.6 µg/mL (≈ 2.97 µM)
MIC ([2]; clinical strain 7 (Table S2), read-out: MIC): 1.6 µg/mL (≈ 2.97 µM)
MIC ([2]; clinical strain 7 (Table S5), read-out: MIC): 1.6 µg/mL (≈ 2.97 µM)
MIC ([2]; clinical strain 8 (Table S2), read-out: MIC): 1.6 µg/mL (≈ 2.97 µM)
MIC ([2]; clinical strain 8 (Table S5), read-out: MIC): 0.8 µg/mL (≈ 1.49 µM)
MIC ([2]; clinical strain 9 (Table S2), read-out: MIC): 0.8 µg/mL (≈ 1.49 µM)
MIC ([2]; clinical strain 9 (Table S5), read-out: MIC): 3.12 µg/mL (≈ 5.81 µM)
MIC ([2]; clinical strain 10 (Table S2), read-out: MIC): 3.12 µg/mL (≈ 5.81 µM)
MIC ([2]; clinical strain 10 (Table S5), read-out: MIC): 3.12 µg/mL (≈ 5.81 µM)
MIC ([2]; clinical strain 11 (Table S2), read-out: MIC): 1.6 µg/mL (≈ 2.97 µM)
MIC ([2]; clinical strain 11 (Table S5), read-out: MIC): 1.6 µg/mL (≈ 2.97 µM)
MIC ([2]; clinical strain 12 (Table S2), read-out: MIC): 3.12 µg/mL (≈ 5.81 µM)
MIC ([2]; clinical strain 12 (Table S5), read-out: MIC): 1.6 µg/mL (≈ 2.97 µM)
MIC ([2]; clinical strain 13 (Table S2), read-out: MIC): 1.6 µg/mL (≈ 2.97 µM)
MIC ([2]; clinical strain 13 (Table S5), read-out: MIC): 1.6 µg/mL (≈ 2.97 µM)
MIC ([2]; clinical strain 14 (Table S2), read-out: MIC): 3.12 µg/mL (≈ 5.81 µM)
MIC ([2]; clinical strain 14 (Table S5), read-out: MIC): 1.6 µg/mL (≈ 2.97 µM)
MIC ([2]; clinical strain 15 (Table S2), read-out: MIC): 1.6 µg/mL (≈ 2.97 µM)
MIC ([2]; clinical strain 15 (Table S5), read-out: MIC): 3.12 µg/mL (≈ 5.81 µM)
MIC ([2]; clinical strain 16 (Table S2), read-out: MIC): 3.12 µg/mL (≈ 5.81 µM)
MIC ([2]; clinical strain 16 (Table S5), read-out: MIC): 1.6 µg/mL (≈ 2.97 µM)
MIC ([2]; clinical strain 17 (Table S2), read-out: MIC): 1.6 µg/mL (≈ 2.97 µM)
MIC ([2]; clinical strain 17 (Table S5), read-out: MIC): 0.1 µg/mL (≈ 0.186 µM)
MIC ([2]; clinical strain 18 (Table S2), read-out: MIC): 1.6 µg/mL (≈ 2.97 µM)
MIC ([2]; clinical strain 18 (Table S5), read-out: MIC): 3.12 µg/mL (≈ 5.81 µM)
MIC ([2]; clinical strain 19 (Table S2), read-out: MIC): 1.6 µg/mL (≈ 2.97 µM)
MIC ([2]; clinical strain 19 (Table S5), read-out: MIC): 0.8 µg/mL (≈ 1.49 µM)
MIC ([2]; clinical strain 20 (Table S2), read-out: MIC): 0.1 µg/mL (≈ 0.186 µM)
MIC ([2]; clinical strain 20 (Table S5), read-out: MIC): 1.6 µg/mL (≈ 2.97 µM)
MIC ([2]; clinical strain 21 (Table S2), read-out: MIC): 1.6 µg/mL (≈ 2.97 µM)
MIC ([2]; clinical strain 21 (Table S5), read-out: MIC): 1.6 µg/mL (≈ 2.97 µM)
MIC ([2]; clinical strain 22 (Table S2), read-out: MIC): 1.6 µg/mL (≈ 2.97 µM)
MIC ([2]; clinical strain 22 (Table S5), read-out: MIC): 0.8 µg/mL (≈ 1.49 µM)
MIC ([2]; clinical strain 23 (Table S2), read-out: MIC): 1.6 µg/mL (≈ 2.97 µM)
MIC ([2]; clinical strain 23 (Table S5), read-out: MIC): 1.6 µg/mL (≈ 2.97 µM)
MIC ([2]; clinical strain 24 (Table S2), read-out: MIC): 0.8 µg/mL (≈ 1.49 µM)
MIC ([2]; clinical strain 24 (Table S5), read-out: MIC): 1.6 µg/mL (≈ 2.97 µM)
MIC ([2]; clinical strain 25 (Table S2), read-out: MIC): 3.12 µg/mL (≈ 5.81 µM)
MIC ([2]; clinical strain 25 (Table S5), read-out: MIC): 0.8 µg/mL (≈ 1.49 µM)
MIC ([2]; clinical strain 26 (Table S2), read-out: MIC): 1.6 µg/mL (≈ 2.97 µM)
MIC ([2]; clinical strain 26 (Table S5), read-out: MIC): 3.12 µg/mL (≈ 5.81 µM)
MIC ([2]; clinical strain 27 (Table S2), read-out: MIC): 0.4 µg/mL (≈ 0.743 µM)
MIC ([2]; clinical strain 27 (Table S5), read-out: MIC): 3.12 µg/mL (≈ 5.81 µM)
MIC ([2]; clinical strain 28 (Table S2), read-out: MIC): 0.8 µg/mL (≈ 1.49 µM)
MIC ([2]; clinical strain 28 (Table S5), read-out: MIC): 0.8 µg/mL (≈ 1.49 µM)
MIC ([2]; clinical strain 29 (Table S2), read-out: MIC): 1.6 µg/mL (≈ 2.97 µM)
MIC ([2]; clinical strain 29 (Table S5), read-out: MIC): 0.4 µg/mL (≈ 0.743 µM)
MIC ([2]; clinical strain 30 (Table S2), read-out: MIC): 3.12 µg/mL (≈ 5.81 µM)
MIC ([2]; clinical strain 30 (Table S5), read-out: MIC): 0.8 µg/mL (≈ 1.49 µM)
MIC ([2]; clinical strain 31 (Table S2), read-out: MIC): 0.8 µg/mL (≈ 1.49 µM)
MIC ([2]; clinical strain 31 (Table S5), read-out: MIC): 1.6 µg/mL (≈ 2.97 µM)
MIC ([2]; clinical strain 32 (Table S2), read-out: MIC): 1.6 µg/mL (≈ 2.97 µM)
MIC ([2]; clinical strain 32 (Table S5), read-out: MIC): 1.6 µg/mL (≈ 2.97 µM)
MIC ([2]; clinical strain 33 (Table S2), read-out: MIC): 3.12 µg/mL (≈ 5.81 µM)
MIC ([2]; clinical strain 33 (Table S5), read-out: MIC): 1.6 µg/mL (≈ 2.97 µM)
MIC ([2]; clinical strain 34 (Table S2), read-out: MIC): 1.6 µg/mL (≈ 2.97 µM)
MIC ([2]; clinical strain 34 (Table S5), read-out: MIC): 1.6 µg/mL (≈ 2.97 µM)
MIC ([2]; clinical strain 35 (Table S2), read-out: MIC): 1.6 µg/mL (≈ 2.97 µM)
MIC ([2]; clinical strain 35 (Table S5), read-out: MIC): 1.6 µg/mL (≈ 2.97 µM)
MIC ([2]; clinical strain 36 (Table S2), read-out: MIC): 0.8 µg/mL (≈ 1.49 µM)
MIC ([2]; clinical strain 36 (Table S5), read-out: MIC): 1.6 µg/mL (≈ 2.97 µM)
MIC ([2]; clinical strain 37 (Table S2), read-out: MIC): 1.6 µg/mL (≈ 2.97 µM)
MIC ([2]; clinical strain 37 (Table S5), read-out: MIC): 1.6 µg/mL (≈ 2.97 µM)
MIC ([2]; clinical strain 38 (Table S2), read-out: MIC): 1.6 µg/mL (≈ 2.97 µM)
MIC ([2]; clinical strain 38 (Table S5), read-out: MIC): 1.6 µg/mL (≈ 2.97 µM)
MIC ([2]; clinical strain 39 (Table S2), read-out: MIC): 1.6 µg/mL (≈ 2.97 µM)
MIC ([2]; clinical strain 39 (Table S5), read-out: MIC): 0.8 µg/mL (≈ 1.49 µM)
MIC ([2]; clinical strain 40 (Table S2), read-out: MIC): 1.6 µg/mL (≈ 2.97 µM)
MIC ([2]; clinical strain 40 (Table S5), read-out: MIC): 0.8 µg/mL (≈ 1.49 µM)
MIC ([2]; clinical strain 41 (Table S2), read-out: MIC): 0.8 µg/mL (≈ 1.49 µM)
MIC ([2]; clinical strain 41 (Table S5), read-out: MIC): 1.6 µg/mL (≈ 2.97 µM)
